Entries after “also recorded” stand apart in the source; their conditions may differ.
Experiments:
endometriotic lesions [1] = experiment: Endometriosis model in rhesus macaques: uterus weight and weights/size of endometrial lesions after 60 days of treatment; type: in vivo
Protocol: (§1) The activity of the mineralcorticoid receptor antagonist spironolactone was tested in an endometriosis model in non-human primates. Non-human primates are the only species apart from man where endometriosis occurs spontaneously under natural conditions. They are therefore the most relevant model for examining this disorder. […] In this procedure, the animals are given a depot for estradiol substitution which keeps the serum level at 80 to 100 pg/ml. In this manner, it is ensured that the endometriotic lesions are exposed to physiological concentrations of estradiol. By virtue of the depot, interindividual variations of the hormone concentrations and their effect on the results can be excluded. After the treatment, the size of the endometrium lesions was determined, and the proliferation of these lesions was detected by a histological analysis. […] In an autologous transplantation, a plurality of lesions from endometrium tissue were implanted subcutaneously and intraperitoneally/abdominally into rhesus macaques.

endometriotic lesions [2] = experiment: Rate of proliferation of endometrial lesions in the rhesus macaque endometriosis model (Ki67 staining, BrDU incorporation); type: in vivo, rhesus macaques; conditions: abdominal lesions, secretory cells; 60 days spironolactone vs control; FIG. 3
Protocol: as §1, with “Accordingly, the mineralcorticoid receptor antagonist spironolactone has” for “In an autologous transplantation,”, “positive effect on endometriosis genesis.” for “plurality of lesions from endometrium tissue were implanted subcutaneously and intraperitoneally/abdominally into rhesus macaques.”
Examination of the rate of proliferation of endometrial lesions in an endometriosis model in rhesus macaques after treatment with spironolactone.
Both detection of cell division in the endometriotic lesions by Ki67 (top row) and by incorporation of BrDU (bottom row) show a reduced value in the animals treated with spironolactone (control, left, compared to spironolactone, right).

[3] = after 60 days of treatment, macaque model, n = 4

| Structure (SMILES) | Intraabdominal lesion wt (endometriotic lesions [1]; [3]) | Subcutaneous lesion wt (endometriotic lesions [1]; [3]) [g] | Uterus wt (endometriotic lesions [1]; [3]) [g] | size of the endometriotic lesions compared to control animals (endometriotic lesions [1]; 60 days estradiol + spironolactone 30 mg/kg/day vs estradiol control) | effect on the uterus as such (endometriotic lesions [1]; 60 days estradiol + spironolactone vs estradiol control) | weight of subcutaneous and intraperitoneal/abdominal lesions after treatment (in words) (endometriotic lesions [1]; 60 days estradiol + spironolactone vs estradiol control, both types of lesions) | proliferation in the lesions by bromodeoxyuridine (BrDU) incorporation (endometriotic lesions [2]) | proliferation in the lesions by staining of the mitotic antigen Ki67 (endometriotic lesions [2]) |
| --- | --- | --- | --- | --- | --- | --- | --- | --- |
| C[C@]12CC[C@@H]3c4ccc(O)cc4CC[C@H]3[C@@H]1CC[C@@H]2O [E2, estradiol] | 0.068 + 0.11 g | 0.039 ± 0.008 | 3.75 ± 0.496 | – | – | – | – | – |
| CC(=O)S[C@@H]1CC2=CC(=O)CC[C@]2(C)[C@H]2CC[C@@]3(C)[C@@H](CC[C@@]34CCC(=O)O4)[C@H]12 [spironolactone] | – | – | – | significant reduction of the endometriotic lesions | no significant effect | reduction in weight | reduction of proliferation; also recorded: strongly reduced; also recorded: reduced value | reduction of proliferation; also recorded: strongly reduced; also recorded: reduced value |
